Assay results as given in article PMC6950057, “Toxicity, Pharmacokinetics, and Gut Microbiome of Oral Administration of Sesterterpene MHO7 Derived from a Marine Fungus” (Marine Drugs, 2019).
Like-named read-outs stand apart in the source and are kept apart here.

What was measured:
[1] = system: breast cancer cells (MCF-7); set-up: method as in PMID 31175940; conditions: mechanism of down regulating estrogen receptor alpha (ERα); cited from earlier work
[2] = Tissue distribution after single oral dose; format: in vivo, mice; conditions: for concentration at 1 h / concentration at 4 h / concentration at 8 h / concentration at 12 h / concentration at 20 h / concentration at 30 h / Kp: KM, mouse; for Kp: female
Protocol: The animals and treatment methods were the same as in the pharmacokinetic studies. Afterwards, the biological samples (n = 6 per group) were collected at 1, 4, 8, 12, 20, and 30 h, and the tissues including heart, liver, spleen, lung, kidney, stomach, intestine, brain, muscle (hind limb), fat (white adipose tissue ), reproductive organs (uterus, fallopian tube and ovary) stomach and its contents, and intestine and its contents, and the blood samples were simultaneously collected. All the tissues were washed with cold physiological saline (4 °C), excess fluid blotted, accurately weighed, and subjected to the processing as described in the sample preparation. QC samples and standard curve series solutions were prepared in the same way of blank gastrointestinal contents and livers, respectively. The concentrations of HQC, MQC, and LQC in mice tissues were 10, 1, and 0.1 μM·L^−1, respectively, and the concentrations of standard curve series solutions were 50, 25, 10, 5, 2.5, 1, 0.5, 0.25, 0.1, and 0.005 μM·L^−1 for high and low concentrations of standard curves.

[3] = 1 h, oral 500 mg·kg^−1, female mice
[4] = 4 h, oral 500 mg·kg^−1, female mice
[5] = 8 h, oral 500 mg·kg^−1, female mice
[6] = 12 h, oral 500 mg·kg^−1, female mice

## CC(C)=C/C=C/[C@H](C)[C@H]1CC[C@]2(C)C[C@@H]3C(C)=CC(=O)[C@H]3/C(C=O)=C\C[C@@H]12 [MHO7, 6-epi-ophiobolin G]
[1]
  antitumor activity: potent antitumor activity
[2]; [3]
  Concentration in Brain: 0.95 ± 0.80 µg/g
  Concentration in Liver: 3.01 ± 1.53 µg/g
  Concentration in Reproductive organs: 0.88 ± 0.68 µg/g
[2]; [4]
  Concentration in Fat: 5.20 ± 3.47 µg/g
  Concentration in Liver: 1.64 ± 1.09 µg/g
  Concentration in Reproductive organs: 2.29 ± 1.80 µg/g
[2]; [5]
  Concentration in Fat: 11.15 ± 8.87 µg/g
  Concentration in Kidney: 1.66 ± 0.74 µg/g
  Concentration in Reproductive organs: 23.90 ± 11.33 µg/g
[2]; [6]
  Concentration in Kidney: 8.16 ± 6.23 µg/g
  Concentration in Lung: 2.34 ± 1.91 µg/g
  Concentration in Reproductive organs: 13.69 ± 10.29 µg/g
[2]; 20 h, oral 500 mg·kg^−1, female mice
  Concentration in Reproductive organs: 1.46 ± 1.23 µg/g
[2]; 30 h, oral 500 mg·kg^−1, female mice
  Concentration in Reproductive organs: 0.36 ± 0.46 µg/g
[2]; brain, 1 h, oral 500 mg·kg^−1, female mice, read-out: Concentration in Brain
  concentration at 1 h: 950 ± 800 ng/g
[2]; brain, 4 h, oral 500 mg·kg^−1, female mice, read-out: Concentration in Brain
  concentration at 4 h: 480 ± 330 ng/g
[2]; brain, 8 h, oral 500 mg·kg^−1, female mice, read-out: Concentration in Brain
  concentration at 8 h: 500 ± 150 ng/g
[2]; brain, 12 h, oral 500 mg·kg^−1, female mice, read-out: Concentration in Brain
  concentration at 12 h: 180 ± 110 ng/g
[2]; brain, 20 h, oral 500 mg·kg^−1, female mice, read-out: Concentration in Brain
  concentration at 20 h: 100 ± 50 ng/g
[2]; brain, 30 h, oral 500 mg·kg^−1, female mice, read-out: Concentration in Brain
  concentration at 30 h: 10 ± 4 ng/g
[2]; fat (white adipose tissue), 1 h, oral 500 mg·kg^−1, female mice, read-out: Concentration in Fat
  concentration at 1 h: 740 ± 410 ng/g
[2]; fat (white adipose tissue), 4 h, oral 500 mg·kg^−1, female mice, read-out: Concentration in Fat
  concentration at 4 h: 5200 ± 3470 ng/g
[2]; fat (white adipose tissue), 8 h, oral 500 mg·kg^−1, female mice, read-out: Concentration in Fat
  concentration at 8 h: 11200 ± 8870 ng/g
[2]; fat (white adipose tissue), 12 h, oral 500 mg·kg^−1, female mice, read-out: Concentration in Fat
  concentration at 12 h: 740 ± 700 ng/g
[2]; fat (white adipose tissue), 20 h, oral 500 mg·kg^−1, female mice, read-out: Concentration in Fat
  concentration at 20 h: 340 ± 250 ng/g
[2]; fat (white adipose tissue), 30 h, oral 500 mg·kg^−1, female mice, read-out: Concentration in Fat
  concentration at 30 h: 180 ± 160 ng/g
[2]; heart, 1 h, oral 500 mg·kg^−1, female mice, read-out: Concentration in Heart
  concentration at 1 h: 60 ± 37 ng/g
[2]; heart, 4 h, oral 500 mg·kg^−1, female mice, read-out: Concentration in Heart
  concentration at 4 h: 850 ± 510 ng/g
[2]; heart, 8 h, oral 500 mg·kg^−1, female mice, read-out: Concentration in Heart
  concentration at 8 h: 670 ± 480 ng/g
[2]; heart, 12 h, oral 500 mg·kg^−1, female mice, read-out: Concentration in Heart
  concentration at 12 h: 640 ± 300 ng/g
[2]; heart, 20 h, oral 500 mg·kg^−1, female mice, read-out: Concentration in Heart
  concentration at 20 h: 40 ± 20 ng/g
[2]; heart, 30 h, oral 500 mg·kg^−1, female mice, read-out: Concentration in Heart
  concentration at 30 h: 80 ± 10 ng/g
[2]; kidney, 1 h, oral 500 mg·kg^−1, female mice, read-out: Concentration in Kidney
  concentration at 1 h: 110 ± 60 ng/g
[2]; kidney, 4 h, oral 500 mg·kg^−1, female mice, read-out: Concentration in Kidney
  concentration at 4 h: 1630 ± 920 ng/g
[2]; kidney, 8 h, oral 500 mg·kg^−1, female mice, read-out: Concentration in Kidney
  concentration at 8 h: 1660 ± 740 ng/g
[2]; kidney, 12 h, oral 500 mg·kg^−1, female mice, read-out: Concentration in Kidney
  concentration at 12 h: 8160 ± 6230 ng/g
[2]; kidney, 20 h, oral 500 mg·kg^−1, female mice, read-out: Concentration in Kidney
  concentration at 20 h: 390 ± 90 ng/g
[2]; kidney, 30 h, oral 500 mg·kg^−1, female mice, read-out: Concentration in Kidney
  concentration at 30 h: 70 ± 10 ng/g
[2]; liver, 1 h, oral 500 mg·kg^−1, female mice, read-out: Concentration in Liver
  concentration at 1 h: 3010 ± 1530 ng/g
[2]; liver, 4 h, oral 500 mg·kg^−1, female mice, read-out: Concentration in Liver
  concentration at 4 h: 1640 ± 1090 ng/g
[2]; liver, 8 h, oral 500 mg·kg^−1, female mice, read-out: Concentration in Liver
  concentration at 8 h: 180 ± 220 ng/g
[2]; liver, 12 h, oral 500 mg·kg^−1, female mice, read-out: Concentration in Liver
  concentration at 12 h: 490 ± 370 ng/g
[2]; liver, 20 h, oral 500 mg·kg^−1, female mice, read-out: Concentration in Liver
  concentration at 20 h: 60 ± 50 ng/g
[2]; liver, 30 h, oral 500 mg·kg^−1, female mice, read-out: Concentration in Liver
  concentration at 30 h: 10 ± 10 ng/g
[2]; lung, 1 h, oral 500 mg·kg^−1, female mice, read-out: Concentration in Lung
  concentration at 1 h: 430 ± 180 ng/g
[2]; lung, 4 h, oral 500 mg·kg^−1, female mice, read-out: Concentration in Lung
  concentration at 4 h: 1060 ± 450 ng/g
[2]; lung, 8 h, oral 500 mg·kg^−1, female mice, read-out: Concentration in Lung
  concentration at 8 h: 820 ± 710 ng/g
[2]; lung, 12 h, oral 500 mg·kg^−1, female mice, read-out: Concentration in Lung
  concentration at 12 h: 2340 ± 1910 ng/g
[2]; lung, 20 h, oral 500 mg·kg^−1, female mice, read-out: Concentration in Lung
  concentration at 20 h: 160 ± 40 ng/g
[2]; lung, 30 h, oral 500 mg·kg^−1, female mice, read-out: Concentration in Lung
  concentration at 30 h: 80 ± 20 ng/g
[2]; muscle (hind limb), 1 h, oral 500 mg·kg^−1, female mice, read-out: Concentration in Muscle
  concentration at 1 h: 310 ± 220 ng/g
[2]; muscle (hind limb), 4 h, oral 500 mg·kg^−1, female mice, read-out: Concentration in Muscle
  concentration at 4 h: 970 ± 480 ng/g
[2]; muscle (hind limb), 8 h, oral 500 mg·kg^−1, female mice, read-out: Concentration in Muscle
  concentration at 8 h: 640 ± 370 ng/g
[2]; muscle (hind limb), 12 h, oral 500 mg·kg^−1, female mice, read-out: Concentration in Muscle
  concentration at 12 h: 1420 ± 800 ng/g
[2]; muscle (hind limb), 20 h, oral 500 mg·kg^−1, female mice, read-out: Concentration in Muscle
  concentration at 20 h: 170 ± 100 ng/g
[2]; muscle (hind limb), 30 h, oral 500 mg·kg^−1, female mice, read-out: Concentration in Muscle
  concentration at 30 h: 20 ± 3 ng/g
[2]; reproductive organs (uterus, fallopian tube and ovary), 1 h, oral 500 mg·kg^−1, female mice, read-out: Concentration in Reproductive organs
  concentration at 1 h: 880 ± 680 ng/g
[2]; reproductive organs (uterus, fallopian tube and ovary), 4 h, oral 500 mg·kg^−1, female mice, read-out: Concentration in Reproductive organs
  concentration at 4 h: 2290 ± 1800 ng/g
[2]; reproductive organs (uterus, fallopian tube and ovary), 8 h, oral 500 mg·kg^−1, female mice, read-out: Concentration in Reproductive organs
  concentration at 8 h: 23900 ± 11300 ng/g
[2]; reproductive organs (uterus, fallopian tube and ovary), 12 h, oral 500 mg·kg^−1, female mice, read-out: Concentration in Reproductive organs
  concentration at 12 h: 13700 ± 10300 ng/g
[2]; reproductive organs (uterus, fallopian tube and ovary), 20 h, oral 500 mg·kg^−1, female mice, read-out: Concentration in Reproductive organs
  concentration at 20 h: 1460 ± 1230 ng/g
[2]; reproductive organs (uterus, fallopian tube and ovary), 30 h, oral 500 mg·kg^−1, female mice, read-out: Concentration in Reproductive organs
  concentration at 30 h: 360 ± 460 ng/g
[2]; spleen, 1 h, oral 500 mg·kg^−1, female mice, read-out: Concentration in Spleen
  concentration at 1 h: 40 ± 30 ng/g
[2]; spleen, 4 h, oral 500 mg·kg^−1, female mice, read-out: Concentration in Spleen
  concentration at 4 h: 430 ± 200 ng/g
[2]; spleen, 8 h, oral 500 mg·kg^−1, female mice, read-out: Concentration in Spleen
  concentration at 8 h: 480 ± 500 ng/g
[2]; spleen, 12 h, oral 500 mg·kg^−1, female mice, read-out: Concentration in Spleen
  concentration at 12 h: 200 ± 140 ng/g
[2]; spleen, 20 h, oral 500 mg·kg^−1, female mice, read-out: Concentration in Spleen
  concentration at 20 h: 310 ± 20 ng/g
[2]; spleen, 30 h, oral 500 mg·kg^−1, female mice, read-out: Concentration in Spleen
  concentration at 30 h: 10 ± 4 ng/g
[2]; brain, over 1-30 h, oral 500 mg·kg^−1, read-out: tissue/plasma concentration ratio range, brain
  Kp: 0.36 to 6.11
[2]; fat (white adipose tissue), over 1-30 h, oral 500 mg·kg^−1, read-out: tissue/plasma concentration ratio range, fat
  Kp: 2.33 to 14
[2]; heart / plasma, over 1-30 h, oral 500 mg·kg^−1, read-out: tissue/plasma concentration ratio range, heart
  Kp: 0.31 to 4.2
[2]; intestines, oral 500 mg·kg^−1, read-out: tissue/plasma concentration ratio, intestines
  Kp: > 100
[2]; kidney, over 1-30 h, oral 500 mg·kg^−1, read-out: tissue/plasma concentration ratio range, kidney
  Kp: 0.68 to 17.2
[2]; liver, over 1-30 h, oral 500 mg·kg^−1, read-out: tissue/plasma concentration ratio range, liver
  Kp: 0.18 to 17.4
[2]; lung, over 1-30 h, oral 500 mg·kg^−1, read-out: tissue/plasma concentration ratio range, lung
  Kp: 0.72 to 6.84
[2]; muscle (hind limb), over 1-30 h, oral 500 mg·kg^−1, read-out: tissue/plasma concentration ratio range, muscle
  Kp: 0.99 to 5.54
[2]; reproductive organs (uterus, fallopian tube and ovary), over 1-30 h, oral 500 mg·kg^−1, read-out: tissue/plasma concentration ratio range, reproductive organs
  Kp: 6.05 to 30.4
[2]; spleen, over 1-30 h, oral 500 mg·kg^−1, read-out: tissue/plasma concentration ratio range, spleen
  Kp: 0.28 to 8.55
[2]; stomach, oral 500 mg·kg^−1, read-out: tissue/plasma concentration ratio, stomach
  Kp: > 1000
[2]; oral 500 mg·kg^−1, female mice
  amount in the intestine and its contents, of the intake: less than 5%
  amount in the stomach and its contents, of the intake: 16.79%
[2]; over 1-30 h, oral 500 mg·kg^−1
  concentration range in fat: 0.18–11.15
  concentration range in the brain: 0.01–0.95
  concentration range in the heart: 0.04–0.85
  concentration range in the kidney: 0.07–8.16
  concentration range in the liver: 0.01–3.01
  concentration range in the lung: 0.08–2.34
  concentration range in the muscle: 0.02–1.42
  concentration range in the reproductive organs: 0.36–23.90
  concentration range in the spleen: 0.01–0.48
